Results reported in the supplement of paper PMC7287046.

Assays:
Settings in all cases: exposure time: 72 h
[1] = system: AM-38; experiment: HSA synergy score (Combenefit); higher = more synergy
Experimental: (§1)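 The same 6x6 dose matrices of drug pairs on glioma cell lines (72 h, CellTiter-Glo viability normalised to DMSO, triplicate) were scored with Combenefit. The Loewe, Bliss and HSA synergy scores are given; paper thresholds are Loewe 7.8 and Bliss 2.5.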

[2] = system: KNS-42; experiment: as above
Experimental: as §1

[3] = system: SF268; experiment: as above
Experimental: as §1

[4] = system: SF539; experiment: as above
Experimental: as §1

[5] = system: SNB75; experiment: as above
Experimental: as §1

[6] = system: T98G; experiment: as above
Experimental: as §1

[7] = system: U118; experiment: as above
Experimental: as §1

[8] = system: U251; experiment: as above
Experimental: as §1

[9] = system: U87; experiment: as above
Experimental: as §1

[10] = system: AM38; experiment: Chou-Talalay combination index (dimensionless); higher = less synergy (more antagonism)
Experimental: (§2)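 Glioma cell lines were treated for 72 h with a 6x6 matrix of two drugs, each in twofold dilutions with the top dose at the single-drug IC50. Viability was read by CellTiter-Glo and normalised to DMSO controls, in triplicate. The Chou-Talalay combination index was computed by the median effect principle; CI < 0.8 means synergy.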

[11] = system: KNS42; experiment: as above
Experimental: as §2

[12] = system: SF268; experiment: as above
Experimental: as §2

[13] = system: SF539; experiment: as above
Experimental: as §2

[14] = system: SNB75; experiment: as above
Experimental: as §2

[15] = system: T98; experiment: as above
Experimental: as §2

[16] = system: U118; experiment: as above
Experimental: as §2

[17] = system: U251; experiment: as above
Experimental: as §2

[18] = system: U87; experiment: as above
Experimental: as §2

[19] = system: AM-38; experiment: Bliss synergy score (Combenefit); higher = more synergy; extreme values may be limits of the assay
Experimental: as §1

[20] = system: KNS-42; experiment: as above
Experimental: as §1

[21] = system: SF268; experiment: as above
Experimental: as §1

[22] = system: SF539; experiment: as above
Experimental: as §1

[23] = system: SNB75; experiment: as above
Experimental: as §1

[24] = system: T98G; experiment: as above
Experimental: as §1

[25] = system: U118; experiment: as above
Experimental: as §1

[26] = system: U251; experiment: as above
Experimental: as §1

[27] = system: U87; experiment: as above
Experimental: as §1

[28] = system: AM-38; experiment: Loewe synergy score (Combenefit); higher = more synergy; extreme values may be limits of the assay
Experimental: as §1

[29] = system: KNS-42; experiment: as above
Experimental: as §1

[30] = system: SF268; experiment: as above
Experimental: as §1

[31] = system: SF539; experiment: as above
Experimental: as §1

[32] = system: SNB75; experiment: as above
Experimental: as §1

[33] = system: T98G; experiment: as above
Experimental: as §1

[34] = system: U118; experiment: as above
Experimental: as §1

[35] = system: U251; experiment: as above
Experimental: as §1

[36] = system: U87; experiment: as above
Experimental: as §1

C#Cc1cccc(Nc2ncnc3cc(OCCOC)c(OCCOC)cc23)c1 [Erlotinib] + O=c1[nH]c2ccccc2n1C1CCN(Cc2ccc(-c3[nH]c4cc5ncnc5cc4nc3-c3ccccc3)cc2)CC1 [Akt inhibitor VIII]
HSA synergy score [1]: 0 | HSA synergy score [2]: 14 | HSA synergy score [3]: 10.1 | HSA synergy score [4]: 9.63 | HSA synergy score [5]: 13.2 | HSA synergy score [6]: 6.87 | HSA synergy score [7]: 17 | HSA synergy score [8]: 13.6 | HSA synergy score [9]: 0.0775 | Chou-Talalay combination index [10]: 0.914 | Chou-Talalay combination index [11]: 0.754 | Chou-Talalay combination index [12]: 0.97 | Chou-Talalay combination index [13]: 0.906 | Chou-Talalay combination index [14]: 0.763 | Chou-Talalay combination index [15]: 0.775 | Chou-Talalay combination index [16]: 0.807 | Chou-Talalay combination index [17]: 0.526 | Chou-Talalay combination index [18]: 1.26 | Bliss synergy score [19]: 0 | Bliss synergy score [20]: 7.67 | Bliss synergy score [21]: 1.25 | Bliss synergy score [22]: 0.771 | Bliss synergy score [23]: 10.2 | Bliss synergy score [24]: 0.127 | Bliss synergy score [25]: 4.68 | Bliss synergy score [26]: 12.6 | Bliss synergy score [27]: 0 | Loewe synergy score [28]: 0 | Loewe synergy score [29]: 12.3 | Loewe synergy score [30]: 3.87 | Loewe synergy score [31]: 7.22 | Loewe synergy score [32]: 4.44 | Loewe synergy score [33]: 1.87 | Loewe synergy score [34]: 7.49 | Loewe synergy score [35]: 10.4 | Loewe synergy score [36]: 0

CC(=O)O[C@@]12CO[C@@H]1C[C@H](O)[C@@]1(C)C(=O)[C@H](O)C3=C(C)[C@@H](OC(=O)[C@H](O)[C@@H](NC(=O)OC(C)(C)C)c4ccccc4)C[C@@](O)([C@@H](OC(=O)c4ccccc4)[C@H]21)C3(C)C [Docetaxel] + O=c1[nH]c2ccccc2n1C1CCN(Cc2ccc(-c3[nH]c4cc5ncnc5cc4nc3-c3ccccc3)cc2)CC1 [Akt inhibitor VIII]
HSA synergy score [1]: 11 | HSA synergy score [2]: 15.2 | HSA synergy score [3]: 11.6 | HSA synergy score [4]: 2.57 | HSA synergy score [5]: 6.81 | HSA synergy score [6]: 0 | HSA synergy score [7]: 8.23 | HSA synergy score [8]: 0.629 | HSA synergy score [9]: 4.37 | Chou-Talalay combination index [10]: 0.894 | Chou-Talalay combination index [11]: 0.838 | Chou-Talalay combination index [12]: 0.885 | Chou-Talalay combination index [13]: 0.939 | Chou-Talalay combination index [14]: 0.796 | Chou-Talalay combination index [15]: 0.84 | Chou-Talalay combination index [16]: 0.9 | Chou-Talalay combination index [17]: 0.933 | Chou-Talalay combination index [18]: 0.625 | Bliss synergy score [19]: 0.132 | Bliss synergy score [20]: 1.6 | Bliss synergy score [21]: 1.32 | Bliss synergy score [22]: 0.217 | Bliss synergy score [23]: 0.989 | Bliss synergy score [24]: 0 | Bliss synergy score [25]: 5.46 | Bliss synergy score [26]: 0.156 | Bliss synergy score [27]: 1.56 | Loewe synergy score [28]: 5.53 | Loewe synergy score [29]: 10.8 | Loewe synergy score [30]: 3.03 | Loewe synergy score [31]: 1.09 | Loewe synergy score [32]: 0.96 | Loewe synergy score [33]: 0 | Loewe synergy score [34]: 3.76 | Loewe synergy score [35]: 0 | Loewe synergy score [36]: 2.83

CCCCCCCCCCCC1=C(O)C(=O)C=C(O)C1=O [Embelin] + N#CC(c1ccnc(NCCc2cccnc2)n1)c1nc2ccccc2s1 [AS601245]
HSA synergy score [1]: 1.14 | HSA synergy score [2]: 12.6 | HSA synergy score [3]: 5.6 | HSA synergy score [4]: 1.24 | HSA synergy score [5]: 2.04 | HSA synergy score [6]: 11.9 | HSA synergy score [7]: 4.61 | HSA synergy score [8]: 1.11 | HSA synergy score [9]: 10.3 | Chou-Talalay combination index [10]: 0.867 | Chou-Talalay combination index [11]: 0.78 | Chou-Talalay combination index [12]: 0.923 | Chou-Talalay combination index [13]: 0.84 | Chou-Talalay combination index [14]: 0.365 | Chou-Talalay combination index [15]: 0.365 | Chou-Talalay combination index [16]: 0.639 | Chou-Talalay combination index [17]: 0.88 | Chou-Talalay combination index [18]: 0.0258 | Bliss synergy score [19]: 0.346 | Bliss synergy score [20]: 7.8 | Bliss synergy score [21]: 1.91 | Bliss synergy score [22]: 0.103 | Bliss synergy score [23]: 0.833 | Bliss synergy score [24]: 6.12 | Bliss synergy score [25]: 2.98 | Bliss synergy score [26]: 1.11 | Bliss synergy score [27]: 9.51 | Loewe synergy score [28]: 0 | Loewe synergy score [29]: 2.73 | Loewe synergy score [30]: 0.00767 | Loewe synergy score [31]: 0.787 | Loewe synergy score [32]: 0.557 | Loewe synergy score [33]: 6.59 | Loewe synergy score [34]: 4.39 | Loewe synergy score [35]: 1.11 | Loewe synergy score [36]: 0.927
